Results from US9808470B2, “Estrogenic components for use in the treatment of neurological disorders” (UNIVERSITE DE LIEGE, priority 2012, dated 2017).

Assays:
Type in all cases: in vivo
[1] = Ex.4 therapeutic HIE rat model: brain weight; conditions: PND14
Description: Animals were then perfused transcardially with 0.9% saline solution at 4° C., and then with 4% paraformaldehyde in a 0.1-mol/L phosphate-buffered saline solution (pH 7.4) at 4° C. The brains were quickly isolated, weighed and immersed in the same fixative solution at 4° C. for 24 hours, dehydrated with a graded series of ethanol and xylene, and embedded in paraffin.
(§1) To study the therapeutic effect of estetrol, newborn rat pups were assigned to one of the following 6 groups at postnatal day 7: sham group (n=29), vehicle group (n=20), 1 mg/kg E4 group (n=16), 5 mg/kg E4 group (n=19), 10 mg/kg day E4 (n=17) and 50 mg/kg day E4 group (n=15). At postnatal day 7 animals were anesthetized with isoflurane (induction, 3.0%; maintenance, 1.5%), and the rat pups from vehicle and E4 groups passed through surgery encompassing left common carotid artery double ligation and cut. After surgery, the pups were returned to their dams and allowed to recover for 1 hour. The pups were then placed in a humidified hypoxic in vivo cabinet (CoyLab). Hypoxia was produced by the inhalation of 11%-8% of oxygen balanced by nitrogen at decreased concentration of oxygen for 20 minutes, followed by inhalation of 8% oxygen and 92% nitrogen at constant concentration for 35 minutes. All the manipulations were performed at 37° C.
(§2) Upon retrieval from the hypoxia chamber the rat pups were injected intraperitoneally either by vehicle (vehicle group) or by E4 (1 mg/kg, 5 mg/kg, 10 mg/kg or 50 mg/kg) in accordance to the group assignment. The animals from the sham group went through similar procedures but proceeded neither left common carotid artery ligation and cut followed by hypoxia nor vehicle or estetrol administration. Rat pups recovered with their dams until being sacrificed at postnatal day 14.

[2] = system: Microtubule-associated protein 2 (MAP2); experiment: Ex.4 therapeutic HIE rat model: MAP2 staining; conditions: PND14
Description: The brain sections were processed for immunohistochemical detection of neuronal cytoskeletal disruption. For antigen retrieval, the sections were heated in 10 mmol/L citrate buffer (pH 6.0) at 100° C. for 10 minutes. Endogenous peroxidase activity was blocked with 3% hydrogen peroxide for 10 minutes and after a second blocking with 5% normal goat serum, the sections were incubated with anti-microtubule-associated protein 2 (MAP2) antibody, diluted 1:1000 (mouse monoclonal antibody; Sigma, St. Louis, Mo., US) 1 h at room temperature. After rinsing, biotinylated goat anti-mouse immunoglobulin G (Vector Laboratories, Burlingame, Calif.) was added, and antibody detection was performed with the avidin-biotin complex method (Vector Laboratories), with 3,3′-diaminobenzidine (DAB) as the chromogen. Following the reaction with DAB, the slides were washed, dehydrated, and coverslipped.
Samples were analyzed with the aid of an image scanner (Nanozoomer Virtual Microscopy, Hamamatsu, Tokyo, Japan) and the ImageJ software (NIH, US). The MAP2 positive areas in the ipsilateral and contralateral hemispheres were measured. The ratio of the MAP2 positive areas was calculated as the MAP2 positive area of the ipsilateral hemisphere divided by the MAP2 positive area of the contralateral hemisphere. The ratio of the MAP2 positive area in the Sham group was considered by default as 1.0.
as §1, §2

[3] = system: intact cells in hippocampus and cortex; experiment: Ex.8 neuroprotective HIE rat model: intact cell counting
Description: Newborn rat pups were assigned to one of the following 14 groups from postnatal day 4 (FIG. 23(A)): Sham group (n=12), Vehicle group (n=17), 5 mg/kg/day E4 (n=13), 10 mg/kg/day E4 (n=10), 5 mg/kg/day E4+1.6 mg/kg/day PROG (n=11), 10 mg/kg/day E4+1.6 mg/kg/day PROG (n=11), 5 mg/kg/day E4+16 mg/kg/day PROG (n=11), 10 mg/kg/day E4+16 mg/kg/day PROG (n=11), 5 mg/kg/day E4+136 ng//kg/day E2 (n=11), 10 mg/kg/day E4+136 ng/kg/day E2 (n=11), 5 mg/kg/day E4+1.6 mg/kg/day PROG+136 ng/kg/day (n=13) E2, 10 mg/kg/day E4+1.6 mg/kg/day PROG+136 ng/kg/day E2 (n=16), 5 mg/kg/day E4+16 mg/kg/day PROG+136 ng/kg/day E2 (n=11), 10 mg/kg/day E4+16 mg/kg/day PROG+136 ng/kg/day groups (n=13). Intraperitoneal injections of the pups from study groups were performed from postnatal day 4 to postnatal day 7 inclusively. At day 7, 30 minutes after last injection, animals were anesthetized with isoflurane (induction, 3.0%; maintenance, 1.5%), and the rat pups from vehicle and all the other groups, except the sham group, passed through surgery encompassing left common carotid artery double ligation and cut. After the procedure, the pups were returned to their dams and were allowed to recover for 1 hour. The pups were then placed in the humidified hypoxic in vivo cabinet (CoyLab, Grass Lake, Mich., USA). Hypoxia was produced by the inhalation of 11%-8% of oxygen balanced by nitrogen at decreased concentration of oxygen for 20 minutes, followed by inhalation of 8% oxygen and 92% nitrogen at constant concentration for 35 minutes. All the manipulations were performed at 37° C. The Sham group went through similar procedures without left common carotid artery ligation followed by neither hypoxia nor injection. […]
Intact cell counting was performed on hematoxylin-eosin-stained sections of the rat pups brains at magnification 400× in 3 fields of the respective brain area. […] The sections were analyzed with the aid of a microscope (Olympus BX51, Olympus, Tokyo, Japan), an image scanner (DotSlide Digital Virtual Microscopy, Olympus, Germany) and ImageJ software (NIH, US). […]

[4] = 1 mg/kg E4 single ip dose after HI
[5] = 5 mg/kg E4 single ip dose after HI
[6] = 10 mg/kg E4 single ip dose after HI
[7] = 50 mg/kg E4 single ip dose after HI

C[C@]12CC[C@@H]3c4ccc(O)cc4CC[C@H]3[C@@H]1[C@@H](O)[C@@H](O)[C@@H]2O [E4, 1,3,5(10)-estratrien-3,15α,16α,17β-tetrol]
brain weight [1, 4]: 1.099 ± 0.037 g
brain weight [1, 5]: 1.06 ± 0.035 g
brain weight [1, 6]: 1.12 ± 0.33 g
brain weight [1, 7]: 1.163 ± 0.025 g
ratio of MAP2-positive area (ipsilateral/contralateral) [2, 4]: 0.943±0.028
ratio of MAP2-positive area (ipsilateral/contralateral) [2, 5]: 0.89±0.037
ratio of MAP2-positive area (ipsilateral/contralateral) [2, 6]: 0.938±0.044
ratio of MAP2-positive area (ipsilateral/contralateral) [2, 7]: 0.966±0.036
number of intact cells per visual field ([3]; 5 mg/kg/day E4, SGZ): 72.10±5.93
number of intact cells per visual field ([3]; 10 mg/kg/day E4, DG): 227.30±14.18
number of intact cells per visual field ([3]; 10 mg/kg/day E4, SGZ): 86.10±5.84
